Peptide text beside a SMILES is read from it.
Key:
SSPE Yamagata-1 strain [1] = assay: Viral plaque reduction assay, SSPE virus in Vero cells; type: cell-based, SSPE virus (variant measles virus); settings: for inhibition of plaque formation compared with the control group, SSPE Yamagata-1 strain (peptide screening): peptide 10 μM, Vero cells and Vero/SLAM cells (Fig 2C), duplicate, at least twice independently; for EC50: plaque reduction, SSPE Yamagata-1 strain, mean ± SD; for EC50 / SI, SSPE virus (Vero cells): Vero cells; for SI, SSPE virus (Vero cells): selectivity index, ratio of CC50 relative to EC50
Description: (§1) African green monkey kidney (Vero) cells and Vero cells expressing human SLAM (Vero/SLAM cells) were used in all experiments. The growth medium for Vero cells comprised minimal essential medium (MEM) supplemented with 10% heat-inactivated newborn bovine serum, penicillin G (100 IU/ml), streptomycin (100 μg/ml), and L-glutamine (300 μg/ml). The same growth medium, which was further supplemented with G418 (400 μg/ml), was used for Vero/SLAM cells. Cells were seeded into the wells (22 mm) of 12-well tissue culture plates at 1 × 10^5 cells/well and incubated at 37°C in a 10% CO2 incubator for 3 days, at which time they had just reached confluence. The virus strains used were human MV Edmonston strain and SSPE Yamagata-1 [34], which was originally isolated from the brain of an SSPE patient. The Edmonston strain of MV was used to inoculate Vero/SLAM cells and harvested after freeze–thawing infected cells. The SSPE Yamagata-1 strain was cultured in Vero/SLAM cells, harvested by trypsinization, prepared as an infected cell suspension in the Vero/SLAM cell medium supplemented with 10% dimethyl sulfoxide, and stored at −80°C until use.
(§2) Screening was performed to evaluate the antiviral effects of each synthetic peptide against the MV and SSPE viruses using the viral plaque reduction assay. Based on the results of the peptide screening, the 50% effective concentration (EC50), i.e., the concentration of compounds required to inhibit virus plaque formation by 50%, was also determined. The Human MV Edmonston strain was used to produce cell-free virions, which yielded a reproducible number of syncytia [generally 200–300 plaque-forming units (PFUs)] in the control wells. The SSPE virus was also used to yield a reproducible number of syncytia (generally 70–150 PFU) in control wells. In the peptide screening assay, each synthetic peptide was used at a concentration of 10 μM. IFN-α and enfuvirtide, a peptide fusion inhibitor of HIV-1, were used as controls at a concentration of 250 IU/ml and 10 μM, respectively.

SSPE Yamagata-1 strain [2] = assay: Viral plaque reduction assay, SSPE virus in Vero/SLAM cells; type: cell-based, SSPE virus (variant measles virus); settings: for EC50: plaque reduction, SSPE Yamagata-1 strain, mean ± SD; for SI, SSPE virus (Vero/SLAM cells): selectivity index, ratio of CC50 relative to EC50
Description: as §1, §2

SSPE virus = assay: Time-of-addition experiments, SSPE virus in Vero cells; type: cell-based, SSPE virus (variant measles virus)
Description: Synthetic peptides, M1 and M2EK (10 μM each) were used in time-of-addition experiments. Each peptide was added to Vero cells at three distinct time points: prior to infection (pretreatment with the compound), at the same time as the virus infection (simultaneous infection), or post-infection (post-entry). The SSPE virus was prepared to yield a reproducible number of syncytia in untreated control wells (approximately 50–100/well). In the pretreatment assay, peptide was added to confluent cells and incubated at 37°C for 30 min, and the cell cultures were washed with MEM before viral inoculation. Cells were then challenged with the SSPE virus at 0°C for 30 min. In the simultaneous infection assay, SSPE virus with peptide was inoculated at 0°C for 30 min. After the adsorption, the cell cultures were subsequently washed with MEM, and growth medium containing 0.75% methylcellulose was overlaid on the cell cultures, followed by incubation for 3 days in both pretreatment and simultaneous infection assays. In the post-entry assay, cells were challenged with the SSPE virus at 0°C for 30 min. After adsorption, the cell cultures were subsequently washed with MEM and peptide, which was prepared in growth medium containing 0.75% methylcellulose, was subsequently overlaid on the cell cultures at distinct time points. The starting point when cells were incubated at 0°C for 30 min was defined as t0.

MV Edmonston strain = assay: Viral plaque reduction assay, measles virus in Vero cells; type: cell-based; settings: for EC50: plaque reduction, MV Edmonston strain, mean ± SD; for EC50 / SI, measles virus (Vero cells): Vero cells; for SI, measles virus (Vero cells): selectivity index, ratio of CC50 relative to EC50
Description: as §1, §2

[3] = In vivo toxicity, mice administered peptides alone; parameters: species or system BALB/cAJcl-nu/nu mice; settings: peptide 100 μM intracranial, no virus infection
Description: Based on a previous report, but with slight modifications, 3-week-old female BALB/cAJcl-nu/nu mice (CLEA Japan Inc., Tokyo, Japan) were used in the animal experiments. Mice were divided in four groups (n = 6 for each cage) and housed with free access to both water and food and monitored daily. The mice were SSPE virus-infected or mock-infected (MEM alone) intracranially. An SSPE virus-infected cell suspension containing 250 PFU/ 30 μl (100% lethal dose) was inoculated into the subarachnoid space of nude mice using a 27-gauge double needle at a depth of 2 mm. Each compound was prepared at a concentration of 100 μM and was injected intracranially at 0 (mixed with viruses), 6, and 24 h after the initial virus inoculation. All injections were performed under inhalational anesthesia with isoflurane. Each mouse was checked for neurological symptoms and weighed daily. The ethical endpoint was defined as <75% of their maximum weight because most mice would die within 24 h. On attaining this endpoint, the mice were sacrificed by cervical dislocation under inhalational anesthesia with isoflurane. In this experiment, five mice died of natural causes before the ethical endpoint; however, all mice had neurological symptoms and 9.5%, 13.2%,14.5%, 15.8%, 16.4% weight loss (one each) relative to their maximum weight. This study was approved by the control of the Animal Research Committee in accordance with the Guidelines on Animal Experiments in Fukushima Medical University and the Rules for the Protection and Care of Animals (approval number: 23038).

Vero/SLAM cells = assay: Methyl tetrazolium cytotoxicity assay, Vero/SLAM cells; type: cell-based, African green monkey; settings: confluent Vero/SLAM cells, 24 h, 37°C
Description: (§3) Peptide cytotoxicity was determined using the methyl tetrazolium assay. Five-fold serial dilutions of peptides were added to confluent Vero or Vero/SLAM cells. Cells were then incubated at 37°C for 24 h, and the number of viable cells was determined using 3-(4,5-dimethyllthiazol-2-yl)-2,5-diphenylterazolium bromide (Sigma–Aldrich, Tokyo, Japan). The 50% cytotoxic concentration (CC50), which was defined as the concentration required to reduce the cell viability by 50% relative to that of untreated controls, was determined. The selectivity index (SI) was defined as the ratio of the CC50 relative to the EC50 value.

Vero cells = assay: Methyl tetrazolium cytotoxicity assay, Vero cells; type: cell-based, African green monkey; settings: confluent Vero cells, 24 h, 37°C
Description: as §3

| Molecule | inhibition of plaque formation compared with the control group, SSPE Yamagata-1 strain (peptide screening) (SSPE Yamagata-1 strain [1]) | EC50 (SSPE Yamagata-1 strain [1]) | EC50 (SSPE Yamagata-1 strain [2]) | SI, SSPE virus (Vero cells) (SSPE Yamagata-1 strain [1]) | viral inhibitory effect, peptide added post-infection (post-entry) (SSPE virus; peptide 10 μM overlaid at distinct time points after adsorption) | viral plaque numbers, peptide added before viral adsorption or at the same time as virus inoculation (SSPE virus; peptide 10 μM, pretreatment 37°C 30 min or simultaneous with SSPE virus 0°C 30 min, compared with control) | EC50 (MV Edmonston strain) | SI, measles virus (Vero cells) (MV Edmonston strain) | SI, SSPE virus (Vero/SLAM cells) (SSPE Yamagata-1 strain [2]) | survival of mice administered with peptides alone, with no symptoms [3] | CC50, SSPE virus (Vero/SLAM cells) (Vero/SLAM cells) | CC50, SSPE virus (Vero cells) (Vero cells) | CC50, measles virus (Vero cells) (Vero cells) | inhibition of MV Edmonston plaque formation compared with the control group (peptide screening) (MV Edmonston strain; peptide 10 μM (Fig 2C), duplicate, at least twice independently) |
| --- | --- | --- | --- | --- | --- | --- | --- | --- | --- | --- | --- | --- | --- | --- |
| CC[C@H](C)[C@H](NC(C)=O)C(=O)N[C@@H](CCC(=O)O)C(=O)N[C@@H](CCC(=O)O)C(=O)N[C@@H](CCC(=O)O)C(=O)N[C@@H](CCCNC(=N)N)C(=O)N[C@@H](CCCCN)C(=O)N[C@@H](CCCCN)C(=O)N[C@H](C(=O)N[C@@H](CCC(=O)O)C(=O)N[C@@H](CCC(=O)O)C(=O)N[C@@H](CC(N)=O)C(=O)N[C@@H](CC(C)C)C(=O)N[C@@H](CCCCN)C(=O)N[C@@H](CCCCN)C(=O)N[C@@H](C)C(=O)N[C@@H](CCC(=O)O)C(=O)N[C@@H](CCC(=O)O)C(=O)N[C@@H](CCCCN)C(=O)N[C@@H](CC(C)C)C(=O)N[C@@H](CCCCN)C(=O)N[C@@H](CCCCN)C(=O)N[C@@H](C)C(=O)N[C@@H](CCC(=O)O)C(=O)N[C@@H](CCC(=O)O)C(=O)N[C@@H](CC(C)C)C(=O)N[C@@H](CC(C)C)C(=O)N[C@@H](CCCCN)C(=O)N[C@@H](CCCCN)C(=O)N[C@@H](CO)C(=O)N[C@@H](CCC(=O)O)C(=O)N[C@@H](CCC(=O)O)C(=O)N[C@H](C(=O)N[C@@H](CC(C)C)C(=O)N[C@@H](CCCCN)C(=O)N[C@@H](CCCCN)C(N)=O)[C@@H](C)CC)C(C)C [Peptide M1EK] (Ac-IEEERKKVEENLKKAEEKLKKAEELLKKSEEILKK-NH2) | > 97% | 120 ± 50 nM | 170 ± 20 nM |  |  |  |  |  |  |  |  |  |  |  |
| CC[C@H](C)[C@H](NC(C)=O)C(=O)N[C@@H](CO)C(=O)N[C@@H](CC(C)C)C(=O)N[C@@H](CCC(=O)O)C(=O)N[C@@H](CCCNC(=N)N)C(=O)N[C@@H](CC(C)C)C(=O)N[C@@H](CC(=O)O)C(=O)N[C@H](C(=O)NCC(=O)N[C@H](C(=O)N[C@@H](CC(N)=O)C(=O)N[C@@H](CC(C)C)C(=O)NCC(=O)N[C@@H](CC(N)=O)C(=O)N[C@@H](C)C(=O)N[C@H](C(=O)N[C@@H](C)C(=O)N[C@@H](CCCCN)C(=O)N[C@@H](CC(C)C)C(=O)N[C@@H](CCC(=O)O)C(=O)N[C@@H](CC(=O)O)C(=O)N[C@@H](C)C(=O)N[C@@H](CCCCN)C(=O)N[C@@H](CCC(=O)O)C(=O)N[C@@H](CC(C)C)C(=O)N[C@@H](CC(C)C)C(=O)N[C@@H](CCC(=O)O)C(=O)N[C@@H](CO)C(=O)N[C@@H](CO)C(=O)N[C@@H](CC(=O)O)C(=O)N[C@@H](CCC(N)=O)C(=O)N[C@H](C(=O)N[C@@H](CC(C)C)C(=O)N[C@@H](CCCNC(=N)N)C(=O)N[C@@H](CO)C(N)=O)[C@@H](C)CC)[C@@H](C)CC)[C@@H](C)O)C(C)C [Peptide M1] | > 97% | 10 ± 10 nM | 10 ± 10 nM | >7519 | observed in a time-dependent manner, particularly within 24 h | no reduction in viral plaque numbers | 30 ± 10 nM | >3663 | >9524 | > 45 days |  |  |  |  |
| CC[C@H](C)[C@H](NC(=O)[C@H](C)NC(=O)[C@H](CC(N)=O)NC(=O)CNC(=O)[C@H](CC(C)C)NC(=O)[C@H](CC(N)=O)NC(=O)[C@@H](NC(=O)CNC(=O)[C@@H](NC(C)=O)C(C)C)[C@@H](C)O)C(=O)N[C@@H](C)C(=O)N[C@@H](CCCCN)C(=O)N[C@@H](CC(C)C)C(=O)N[C@@H](CCC(=O)O)C(=O)N[C@@H](CC(=O)O)C(=O)N[C@@H](C)C(=O)N[C@@H](CCCCN)C(=O)N[C@@H](CCC(=O)O)C(=O)N[C@@H](CC(C)C)C(=O)N[C@@H](CC(C)C)C(=O)N[C@@H](CCC(=O)O)C(=O)N[C@@H](CO)C(=O)N[C@@H](CO)C(=O)N[C@@H](CC(=O)O)C(=O)N[C@@H](CCC(N)=O)C(=O)N[C@H](C(=O)N[C@@H](CC(C)C)C(=O)N[C@@H](CCCNC(=N)N)C(=O)N[C@@H](CO)C(=O)N[C@@H](CCSC)C(=O)N[C@@H](CCCCN)C(=O)NCC(=O)N[C@@H](CC(C)C)C(=O)N[C@@H](CO)C(=O)N[C@@H](CO)C(=O)N[C@H](C(N)=O)[C@@H](C)O)[C@@H](C)CC [Peptide M2] |  | 260 ± 170 nM | 480 ± 220 nM | >377 |  |  | 120 ± 40 nM | >805 | >209 |  | >100 µM | >100 µM | >100 µM |  |
| Enfuvirtide | lower antiviral activity | > 10000 nM | > 10000 nM |  |  |  | > 10000 nM |  |  |  |  |  |  | lower antiviral activity |
| enfuvirtide |  |  |  |  |  |  |  |  |  | > 45 days | >100 µM | >100 µM | >100 µM |  |
